Experimental data as given in publication PMC8328489, “Automated Synthesis and Initial Evaluation of (4′-Amino-5′,8′-difluoro-1′H-spiro[piperidine-4,2′-quinazolin]-1-yl)(4-[^18F]fluorophenyl)methanone for PET/MR Imaging of Inducible Nitric Oxide Synthase” (Molecular Imaging, 2021).

Experiments:
iNOS [1] = target: T1, iNOS (Mus musculus, UniProt P29477); test: Logan graphical analysis of dynamic PET (Vt); assay type: in vivo, C57BL/6 mice
T1 construct: tracer to detect iNOS expression in mice injected with lipopolysaccharide (LPS) to induce brain inflammation; from tissue; host or cells: brain of living C57BL/6 mice (LPS-induced); fixed brain sections for IHC
Experimental: The dynamic PET imaging data were analyzed using Logan's model-independent graphical analysis to assess whether [^18F]FBAT PET/MR could be used to detect differences in expression of iNOS in brain regions (Cbra(t)). Cardiac blood TACs (Cref(t)) were used as the reference tissue. The slope of the linear portion of the Logan plot represents the total distribution (Vt). Then, the slope of the linear portion of the plot can be calculated using (1) ∫0tCreferencetdt/CreferenceT=DVR∫0tCbrain regiontdt/CreferenceT+C.

iNOS [2] = target: T1, iNOS; test: Pharmacokinetic two-compartment modeling of dynamic PET; assay type: in vivo, C57BL/6 mice; settings: mouse whole brain
Description: A time activity curve (TAC) for a carotid artery region of interest was used to determine the dynamic PET image-derived [^18F]FBAT input function in uncorrected blood plasma. The corresponding TACs for [^18F]FBAT were derived by applying images from mice administered [^18F]FBAT to the image-derived plasma TAC. Model parameters were estimated for influx constant k1 (mL/cm^3/min^−1), efflux (k2) (min^−1) rate of radioligand diffusion between plasma and brain compartment. Exchange between compartments k3 (min^−1) and k4 (min^−1) was also estimated. The net influx constant, Ki (min^−1), parameter that describes the rate of binding to the iNOS was calculated as (2) KiFBAT=k1FBAT×k3FBAT/k2FBAT+k3FBAT.
Compartmental modeling, pharmacokinetic analyses, and generation of pixel-by-pixel parametric images were accomplished using PMOD 4.0 software (PMOD Technologies Ltd., Zurich, Switzerland).

volume distribution Vt, brainstem (iNOS [1]; LPS 3 h): 0.435 ± 0.040^∗ mL/cm^3
volume distribution Vt, cerebellum (iNOS [1]; LPS 3 h): 0.385 ± 0.016^∗∗ mL/cm^3
volume distribution Vt, cortex (iNOS [1]; LPS 3 h): 0.391 ± 0.020^∗ mL/cm^3
volume distribution Vt, whole brain (iNOS [1]; LPS 3 h): 0.404 ± 0.003 mL/cm^3
volume distribution Vt, brainstem (iNOS [1]; LPS 3 h + AMG): 0.223 ± 0.036 mL/cm^3
volume distribution Vt, cerebellum (iNOS [1]; LPS 3 h + AMG): 0.250 ± 0.055 mL/cm^3
volume distribution Vt, cortex (iNOS [1]; LPS 3 h + AMG): 0.222 ± 0.024 mL/cm^3
volume distribution Vt, whole brain (iNOS [1]; LPS 3 h + AMG): 0.203 ± 0.032 mL/cm^3
volume distribution Vt, brainstem (iNOS [1]; LPS 24 h): 0.315 ± 0.065 mL/cm^3
volume distribution Vt, cerebellum (iNOS [1]; LPS 24 h): 0.288 ± 0.090 mL/cm^3
volume distribution Vt, cortex (iNOS [1]; LPS 24 h): 0.264 ± 0.036^∗ mL/cm^3
volume distribution Vt, whole brain (iNOS [1]; LPS 24 h): 0.274 ± 0.068 mL/cm^3
average volume distribution Vt in brain regions (iNOS [1]; LPS group (implied), blood as reference tissue): 0.40 ± 0.02 mL/cm^3
Vt in the brain regions (iNOS [1]; control animals): 0.29 ± 0.05 mL/cm^3
volume distribution Vt, brainstem (iNOS [1]; control mice): 0.295 ± 0.026 mL/cm^3
volume distribution Vt, cerebellum (iNOS [1]; control mice): 0.227 ± 0.001 mL/cm^3
volume distribution Vt, cortex (iNOS [1]; control mice): 0.278 ± 0.006 mL/cm^3
volume distribution Vt, whole brain (iNOS [1]; control mice): 0.346 ± 0.012 mL/cm^3
Vt, 3 h LPS group vs control group (iNOS [1]; whole brain, average): 1.4 ± 0.22 fold
k1 (influx rate constant) (iNOS [2]; LPS 5 mg/kg): 0.633 ± 0.002 min⁻¹
k2 (efflux rate constant) (iNOS [2]; LPS 5 mg/kg): 0.608 ± 0.054 min⁻¹
k3 (iNOS [2]; LPS 5 mg/kg): 0.006 ± 0.003^∗ min^−1
k1 (influx rate constant) (iNOS [2]; control): 0.957 ± 0.250 min⁻¹
k2 (efflux rate constant) (iNOS [2]; control): 0.777 ± 0.101 min⁻¹
k3 (iNOS [2]; control): 2.86E − 05 ± 4.48E − 05 min^−1
SMILES: NC1=NC2(CCN(C(=O)c3ccc([18F])cc3)CC2)Nc2c(F)ccc(F)c21 [[^18F]FBAT, (4′-amino-5′,8′-difluoro-1′H-spiro[piperidine-4,2′-quinazolin]-1-yl)(4-[^18F]fluorophenyl)methanone]
